Source: patent publication US5932709A (University of Michigan, priority 1997, dated 1999)
Values after ≈ are worked out from the molar mass of the structure shown. “Also recorded” adds a separate entry of the source.

What was measured:
[1] = system: P388/CPT CPT-resistant murine leukemia cells; assay: MTT growth inhibition, P388/CPT; type: cell-based; details: Mus musculus, 72 h, 3 days, read-out: Growth Inhibitory Activity IC50
Protocol: (§1) Camptothecin was used as a control to test the anti-cancer efficacy of the novel camptothecin analogs of the present invention.
(§2) Murine B16 melanoma cell line was grown in RPMI 1640 medium supplemented with 10% heat-inactivated fetal bovine serum, 2 mM L-glutamine, 50 units/mL penicillin, 50 μg/mL streptomycin, 25 μg/mL gentamicin, 0.75% sodium bicarbonate 10 mM HEPES buffer (pH 7.4), and 0.06 mg/mL AntiPPLO. Murine P388 leukemic cell line and human HT-29 colon adenocarcinoma line were maintained in RPMI 1640 medium supplemented with 10% heat-inactivated fetal bovine serum. […] MCF-7M human breast adenocarcinoma was maintained in IMEM supplemented with 5% non heat-inactivated fetal bovine serum and 1 nM insulin.
(§3) [See "Rapid Colorimetric Assay For Cellular Growth And Survival: Application To Proliferation And Cytotoxicity Assays," J. Immun. Meth. 65:55 (1983)]. The assay utilizes a tetrazolium salt to quantitatively measure mammalian cell survival and proliferation by colorimetric methods. In particular, MTT, a pale yellow compound with minimal absorbance, is incubated with cancerous cells in addition to (or in the absence of) a particular camptothecin analog. Living cells with active mitochondrial enzymes metabolize the MTT into a dark blue/purple formazan product with high absorbance. The exact procedure used to test the camptothecin analogs of the present invention is described below.
(§4) Exponentially growing cells (1-2×10^3 cells, unless specified otherwise) in 0.1 mL medium were seeded on day 0 in a 96-well microtiter plate. On day 1, 0.1 mL aliquots of medium containing graded concentrations of test analogs were added to the cell plates. After incubation at 37° C. in a humidified incubator for 3 days (P388, P388/CPT, B16) or 6 days (HT-29, MCF-7M), the plates were centrifuged briefly and 100 μL of the growth medium was removed. Cell cultures were incubated with 50 μL of 3-(4,5-dimethylthiazol-2-yl)-2,5-diphenyl-tetrazolium bromide [MTT, 1 mg/mL in Dulbecco's phosphate buffered saline (PBS)] for 4 hr at 37° C. The resulting purple formazan precipitate was solubilized with 200 μL of 0.04 N HCl in isopropyl alcohol. Absorbance was monitored in a BioRad Model 3550 Microplate Reader at a test wavelength of 570 nm and a reference wavelength of 630 nm. The absorbance is transferred to a PC 486 computer. The IC50 values were determined by a computer program (EZ-ED50) that fits all of the data to the following four-parameter logistic equation:
(§5) Y=(Amax -Amin)/(1+[X/IC^50 ])^n +Amin
(§6) where Amax is the absorbance of control cells, Amin is the absorbance of cells in the presence of highest agent concentration, IC^50 is the concentration of agent that inhibits the cell growth by 50% of control cells (based on the absorbance) and n is the slope of the curve.

tumor cells = assay: MTT growth inhibition across tumor cell lines (P388, P388/CPT, B16, HT-29, MCF-7M); type: cell-based; details: for growth inhibitory activity: comparison in words
Protocol: as §3
as §4, with “equation: […]” for “equation:”

murine P388 leukemia = assay: Murine P388 leukemia model in vivo; set-up: species or system mouse (B6D2F1); details: for Survivors: 30-day; for toxic deaths: at the high dose; for efficacy vs P388 leukemia: i.p. five day schedule; for 30-day survivors (cures): 100 mg/kg
Protocol: (§7) For the B16 melanoma model, the following procedure was used. B6D2F1 mice receive i.p. inocula of B16 murine melanoma brei prepared from B16 tumors growing s.c. in mice (day 0). […] If dosing information for agents is not available, the maximum tolerated dose (MTD) is determined in initial dose finding experiments in non-tumored mice.
(§8) The mean survival times of all groups are calculated, and results are expressed as mean survival of treated mice/mean survival of control mice (T/C)×100%. A T/C value of 150 means that the mice in the treated group lived 50% longer than those of the control group; this is sometimes referred to as the increase in life span or ILS value.
For the P388 leukemia model, the procedure followed is exactly the same as the aforementioned B16 model. The tumor inoculum is prepared by removing ascited fluid containing P388 cells from tumored B6D2F1 mice, centrifuging the cells, and then resuspending the leukemia cells in saline. Mice receive 1×10^6 P388 cells i.p. on day 0.

[2] = system: P388 murine leukemia cells; assay: MTT growth inhibition, P388; type: cell-based; details: Mus musculus, 72 h, 3 days, read-out: Growth Inhibitory Activity IC50
Protocol: as §1, §2, §3, §4, §5, §6

murine B16 melanoma = assay: Murine B16 melanoma model in vivo; set-up: species or system mouse (B6D2F1); details: for Survivors: 60-day
Protocol: 1) Murine B16 Melanoma Model
as §7, §8
Mice that survive for 60 days are considered long-term survivors, or cures, in the B16 model. The universally accepted cut-off for activity in this model, which has been for years by the National Cancer Institute, is T/C=125. Conventional use of B16 over the years has set the following levels of activity: T/C<125, no activity, T/C=125-150, weak activity; T/C=150-200, modest activity; T/C=200-300, high activity; T/C>300, with long term survivors; excellent, curative activity.

[3] = system: B16 murine melanoma cells; assay: MTT growth inhibition, B16; type: cell-based; details: Mus musculus, 72 h, 3 days, read-out: Growth Inhibitory Activity IC50
Protocol: as §1, §2, §3, §4, §5, §6

[4] = system: HT-29 human colon adenocarcinoma cells; assay: MTT growth inhibition, HT-29; type: cell-based; details: 144 h, HT-29, MTT, 6 days, read-out: Growth Inhibitory Activity IC50
Protocol: as §1, §2, §3, §4, §5, §6

[5] = lower dose of 100 mg/kg (so in the source)

CC[C@@]1(O)C(=O)OCc2c1cc1n(c2=O)Cc2c-1nc1ccccc1c2CO[C@@H]1C=C[C@H](OC(C)=O)[C@@H](COC(C)=O)O1 [HAR4, 7-[4,6-di-O-acetyl-2,3-dideoxy-α-D-erythro-hex-2-enopyranosyl]oxymethylcamptothecin]
IC50 [1]: 7.04 µg/mL (≈ 11.9 µM) | growth inhibitory activity (tumor cells): quite similar to those of camptothecin | potency in inhibiting growth of tumor cells (tumor cells; more potent than HAR7): 2-3 fold | cures (murine P388 leukemia; 10 mg/kg): two | T/C (mean survival treated/control) (murine P388 leukemia; 10 mg/kg i.p. daily×5): 201% | Tox Deaths (murine P388 leukemia; 10 mg/kg i.p. daily×5): 0/10 | ΔWeight (%) (murine P388 leukemia; 10 mg/kg i.p. daily×5): -0.6% | Survivors (murine P388 leukemia; 10 mg/kg i.p. daily×5): 2/10 | cures (murine P388 leukemia; 20 mg/kg): two | T/C (mean survival treated/control) (murine P388 leukemia; 20 mg/kg i.p. daily×5): 206% | Tox Deaths (murine P388 leukemia; 20 mg/kg i.p. daily×5): 0/10 | ΔWeight (%) (murine P388 leukemia; 20 mg/kg i.p. daily×5): -14.0% | Survivors (murine P388 leukemia; 20 mg/kg i.p. daily×5): 2/10 | toxic deaths (murine P388 leukemia): no toxic deaths occurred | weight loss (murine P388 leukemia; at the high dose (MTD)): 12%-16 | efficacy vs P388 leukemia (murine P388 leukemia; in words): high, curative efficacy; also recorded: excellent activity vs. P388 | IC50 [2]: 0.03 µg/mL (≈ 0.0508 µM) | cures (murine B16 melanoma; 10 mg/kg): one | T/C (mean survival treated/control) (murine B16 melanoma; 10 mg/kg i.p. daily×5): 189% | Tox Deaths (murine B16 melanoma; 10 mg/kg i.p. daily×5): 0/10 | ΔWeight (%) (murine B16 melanoma; 10 mg/kg i.p. daily×5): +6.6% | Survivors (murine B16 melanoma; 10 mg/kg i.p. daily×5): 1/10 | cures (murine B16 melanoma; 20 mg/kg): one | T/C (mean survival treated/control) (murine B16 melanoma; 20 mg/kg i.p. daily×5): 212% | Tox Deaths (murine B16 melanoma; 20 mg/kg i.p. daily×5): 1/10 | ΔWeight (%) (murine B16 melanoma; 20 mg/kg i.p. daily×5): -15.6% | Survivors (murine B16 melanoma; 20 mg/kg i.p. daily×5): 1/10 | toxic deaths (murine B16 melanoma; high dose group): one | IC50 [3]: 0.026 µg/mL (≈ 0.044 µM) | IC50 [4]: 0.011 µg/mL (≈ 0.0186 µM)

CC[C@@]1(O)C(=O)OCc2c1cc1n(c2=O)Cc2c-1nc1ccccc1c2CO[C@@H]1C=C[C@H](O[C@H]2O[C@H](COC(C)=O)[C@@H](OC(C)=O)[C@H](OC(C)=O)[C@H]2OC(C)=O)[C@@H](COC(C)=O)O1 [HAR5, 7-[6-O-acetyl-4-O-(2,3,4,6-tetra-O-acetyl-α-D-glucopyranosyl)-2,3-dideoxy-α-D-erythro-hex-2-enopyranosyl]oxymethylcamptothecin]
IC50 [1]: 21.2 µg/mL (≈ 24.1 µM) | growth inhibitory activity (tumor cells): more cytotoxic than camptothecin hydroxyl maltal (HAR6) | 30-day survivors (cures) (murine P388 leukemia): one | T/C (mean survival treated/control) (murine P388 leukemia; 100 mg/kg i.p. daily×5): 141% | Tox Deaths (murine P388 leukemia; 100 mg/kg i.p. daily×5): 0/10 | ΔWeight (%) (murine P388 leukemia; 100 mg/kg i.p. daily×5): +0.7% | Survivors (murine P388 leukemia; 100 mg/kg i.p. daily×5): 1/10 | T/C (mean survival treated/control) (murine P388 leukemia; 200 mg/kg i.p. daily×5): 161% | Tox Deaths (murine P388 leukemia; 200 mg/kg i.p. daily×5): 0/10 | ΔWeight (%) (murine P388 leukemia; 200 mg/kg i.p. daily×5): -2.0% | Survivors (murine P388 leukemia; 200 mg/kg i.p. daily×5): 0/10 | weight loss (murine P388 leukemia; at its solubility-limiting dose, in words): only insignificant weight loss | efficacy vs P388 leukemia (murine P388 leukemia; in words): less efficacious compared to the other three compounds | IC50 [2]: 0.362 µg/mL (≈ 0.412 µM) | 60-day survivors (cures) (murine B16 melanoma; 100 mg/kg): three | T/C (mean survival treated/control) (murine B16 melanoma; 100 mg/kg i.p. daily×5): 239% | Tox Deaths (murine B16 melanoma; 100 mg/kg i.p. daily×5): 0/10 | ΔWeight (%) (murine B16 melanoma; 100 mg/kg i.p. daily×5): +9.0% | Survivors (murine B16 melanoma; 100 mg/kg i.p. daily×5): 3/10 | 60-day survivors (cures) (murine B16 melanoma; 200 mg/kg): three | T/C (mean survival treated/control) (murine B16 melanoma; 200 mg/kg i.p. daily×5): 232% | Tox Deaths (murine B16 melanoma; 200 mg/kg i.p. daily×5): 0/10 | ΔWeight (%) (murine B16 melanoma; 200 mg/kg i.p. daily×5): +5.9% | Survivors (murine B16 melanoma; 200 mg/kg i.p. daily×5): 3/10 | efficacy vs. B16 (murine B16 melanoma; among the four analogs, in words): highest efficacy vs. B16 | IC50 [3]: 0.43 µg/mL (≈ 0.489 µM) | IC50 [4]: 0.105 µg/mL (≈ 0.119 µM)

CC[C@@]1(O)C(=O)OCc2c1cc1n(c2=O)Cc2c-1nc1ccccc1c2CO[C@@H]1C=C[C@H](O[C@H]2O[C@H](CO)[C@@H](O)[C@H](O)[C@H]2O)[C@@H](CO)O1 [HAR6, 7-[4-O-(α-D-glucopyranosyl)-2,3-dideoxy-α-D-erythro-hex-2-enopyranosyl]-oxymethylcamptothecin]
IC50 [1]: 28.4 µg/mL (≈ 42.5 µM) | T/C (mean survival treated/control) (murine P388 leukemia; 50 mg/kg i.p. daily×5): 225% | Tox Deaths (murine P388 leukemia; 50 mg/kg i.p. daily×5): 0/10 | ΔWeight (%) (murine P388 leukemia; 50 mg/kg i.p. daily×5): -3.5% | Survivors (murine P388 leukemia; 50 mg/kg i.p. daily×5): 1/10 | 30-day survivors (cures) (murine P388 leukemia): three | T/C (mean survival treated/control) (murine P388 leukemia; 100 mg/kg i.p. daily×5): 320% | Tox Deaths (murine P388 leukemia; 100 mg/kg i.p. daily×5): 0/10 | ΔWeight (%) (murine P388 leukemia; 100 mg/kg i.p. daily×5): -12.2% | Survivors (murine P388 leukemia; 100 mg/kg i.p. daily×5): 3/10 | toxic deaths (murine P388 leukemia): no toxic deaths occurred | weight loss (murine P388 leukemia; at the high dose (MTD)): 12%-16 | efficacy vs P388 leukemia (murine P388 leukemia; in words): high, curative efficacy | T/C (murine P388 leukemia; [5]): 225% | cures (murine P388 leukemia; [5]): one | IC50 [2]: 1.68 µg/mL (≈ 2.51 µM) | 60-day survivors (cures) (murine B16 melanoma; 100 mg/kg): no cures | drug-related deaths (murine B16 melanoma; 100 mg/kg): one | T/C (mean survival treated/control) (murine B16 melanoma; 100 mg/kg i.p. daily×5): 184% | Tox Deaths (murine B16 melanoma; 100 mg/kg i.p. daily×5): 1/10 | ΔWeight (%) (murine B16 melanoma; 100 mg/kg i.p. daily×5): -13.8% | Survivors (murine B16 melanoma; 100 mg/kg i.p. daily×5): 0/10 | weight loss (murine B16 melanoma; 100 mg/kg i.p. five day schedule): approximately 14% | T/C (mean survival treated/control) (murine B16 melanoma; 150 mg/kg i.p. daily×5): 185% | Tox Deaths (murine B16 melanoma; 150 mg/kg i.p. daily×5): 7/10 | ΔWeight (%) (murine B16 melanoma; 150 mg/kg i.p. daily×5): -27.2% | Survivors (murine B16 melanoma; 150 mg/kg i.p. daily×5): 0/10 | IC50 [3]: 2.43 µg/mL (≈ 3.63 µM) | IC50 [4]: 0.476 µg/mL (≈ 0.712 µM)
